# Key:
# Treponema = test: treatment of pigs from a farm with pigs scour, Treponema-positive (Example VII); assay type: in vivo
# Procedure: Pigs, from a farm where problems with pigs scour had existed for some time, were treated under the supervision of the local veterinary surgeon and the inspector of the Health Service Station. The pigs were divided into groups and treated for 4 days in the following manner.
# Group 1: 66 pigs were treated with feed containing 100 ppm of tylosin;
# Group 2: 34 pigs were treated with feed containing 25 ppm of dihydromocimycin;
# Group 3: 40 pigs were treated with feed containing 50 ppm of dihydromocimycin; and
# Group 4: 40 pigs were treated with feed containing 100 ppm of dihydromocimycin.
# Before the treatment, all animals lost thin or very thin faeces. Samples thereof were investigated and found to be Treponema-positive, and Salmonella-negative. Sometimes worm eggs were found.
# [1] = growth promotion in pigs (Example III); assay type: in vivo; settings: pigs, summary of Table VII
# Procedure: The sodium salt of mocimycin as obtained in Example I, was pre-mixed with wheat flour which mixture, added to the feed, was administered to pigs. The amount of the antibiotic present in the feed (based on the weight of the feed) is given hereinbelow in Table VII, in which the average relative weights of the pigs after 6 and 12 weeks, respectively are given.
# Proteus morganii 2241 = test: micro liquid serial dilution test (Table II); assay type: cell-based; settings: Morganella morganii, 18 hours at 30° C or 37° C, recently isolated hospital strain, read-out: Minimum inhibitory concentration
# Procedure: (§1) The microbiological activity of the antibiotic preparation towards a number of micoorganisms has been determined by a micro liquid serial dilution test:
# (§2) A stock solution of the test compounds at a concentration of 200 μg/ml in 0.05 molar phosphate buffer at a pH of 6.5 was prepared and serial 1:1 dilutions were made with a liquid medium inoculated with the test organism, using conventional glass spot-test plates. The plates were incubated 18 hours at 30° C or 37° C. The minimum inhibitory concentration (MIC) which is the smallest concentration of compound completely inhibiting the growth of the test organism is read and calculated in μg/ml.
# (§3) wherein ') indicates penicillinase-producer; ") indicates recently isolated hospital strain.
# [2] = test system: Staphylococcus aureus A 355; test: micro liquid serial dilution test (Table II); assay type: cell-based; settings: A355, 18 hours at 30° C or 37° C, penicillinase-producer, read-out: Minimum inhibitory concentration
# Procedure: as §1, §2, §3
# [3] = test system: Pseudomonas aeruginosa 2396; test: micro liquid serial dilution test (Table II); assay type: cell-based; settings: 18 hours at 30° C or 37° C, recently isolated hospital strain, read-out: Minimum inhibitory concentration
# Procedure: as §1, §2, §3
# [4] = test system: Brucella melitensis A 488; test: microbe, parasite or virus in culture; assay type: cell-based; settings: A488, 18 h, read-out: Minimum inhibitory concentration
# rats = test: three-month oral toxicity in rats; assay type: in vivo; settings: up to 0.1% in the diet, three months
# Text: (§4) The toxicity of the antibiotic has been studied in various animals.
# [5] = test system: human-pathogenic microorganisms; test: in vitro activity against human-pathogenic microorganisms; assay type: cell-based; settings: summary of Table II
# Procedure: as §1, §2
# [6] = test system: Staphylococcus aureus A 321; test: micro liquid serial dilution test (Table II); assay type: cell-based; settings: A321, 18 hours at 30° C or 37° C, read-out: Minimum inhibitory concentration
# Procedure: as §1, §2
# Proteus mirabilis H 3 = test: micro liquid serial dilution test (Table II); assay type: cell-based; settings: H3, 18 hours at 30° C or 37° C, read-out: Minimum inhibitory concentration
# Procedure: as §1, §2
# [7] = test system: Mycoplasma suipneumoniae A 2174; test: micro liquid serial dilution test (Table II); assay type: cell-based; settings: Mesomycoplasma hyopneumoniae, A2174; 18 hours at 30° C or 37° C; read-out: Minimum inhibitory concentration
# Procedure: as §1, §2
# Proteus mirabilis L 93 = test: micro liquid serial dilution test (Table II); assay type: cell-based; settings: L93, 18 hours at 30° C or 37° C, read-out: Minimum inhibitory concentration
# Procedure: as §1, §2
# [8] = test system: Trichophyton mentagrophytes R 177; test: micro liquid serial dilution test (Table II); assay type: cell-based; settings: R177, 18 hours at 30° C or 37° C, read-out: Minimum inhibitory concentration
# Procedure: as §1, §2
# [9] = test system: Staphylococcus aureus A 55 (ATCC 65388); test: micro liquid serial dilution test (Table II); assay type: cell-based; settings: ATCC65388, 18 h, read-out: Minimum inhibitory concentration
# Procedure: as §1, §2
# [10] = test system: Saccharomyces cerevisiae D 160; test: micro liquid serial dilution test (Table II); assay type: cell-based; settings: D160, 18 hours at 30° C or 37° C, read-out: Minimum inhibitory concentration
# Procedure: as §1, §2
# Aspergilus niger D 184 = test: micro liquid serial dilution test (Table II); assay type: cell-based; settings: 18 hours at 30° C or 37° C; read-out: Minimum inhibitory concentration
# Procedure: as §1, §2
# [11] = test system: Streptococcus agalactiae A 732; test: micro liquid serial dilution test (Table II); assay type: cell-based; settings: A732, 18 hours at 30° C or 37° C, read-out: Minimum inhibitory concentration
# Procedure: as §1, §2
# Candida albicans A 7 = test: micro liquid serial dilution test (Table II); assay type: cell-based; settings: A7, 18 hours at 30° C or 37° C, read-out: Minimum inhibitory concentration
# Procedure: as §1, §2
# [12] = test system: Bacillus subtilis ATCC 6633; test: micro liquid serial dilution test (Table II); assay type: cell-based; settings: ATCC6633, 18 hours at 30° C or 37° C, read-out: Minimum inhibitory concentration
# Procedure: as §1, §2
# [13] = test system: Lactobacillus acidophilus D 218; test: micro liquid serial dilution test (Table II); assay type: cell-based; settings: D218, 18 hours at 30° C or 37° C, read-out: Minimum inhibitory concentration
# Procedure: as §1, §2
# Vibrio coli 1846 = test: micro liquid serial dilution test (Table II); assay type: cell-based; settings: Campylobacter coli, 18 hours at 30° C or 37° C, read-out: Minimum inhibitory concentration
# Procedure: as §1, §2
# [14] = test system: Streptococcus faecalis A 306; test: micro liquid serial dilution test (Table II); assay type: cell-based; settings: Enterococcus faecalis, A306; 18 hours at 30° C or 37° C; read-out: Minimum inhibitory concentration
# Procedure: as §1, §2
# [15] = test system: Escherichia coli NCTC 8196; test: micro liquid serial dilution test (Table II); assay type: cell-based; settings: NCTC8196, 18 hours at 30° C or 37° C, read-out: Minimum inhibitory concentration
# Procedure: as §1, §2
# [16] = test system: Pseudomonas aeruginosa L 94; test: micro liquid serial dilution test (Table II); assay type: cell-based; settings: L94, 18 hours at 30° C or 37° C, read-out: Minimum inhibitory concentration
# Procedure: as §1, §2
# Escherichia coli M = test: micro liquid serial dilution test (Table II); assay type: cell-based; settings: 18 hours at 30° C or 37° C, read-out: Minimum inhibitory concentration
# Procedure: as §1, §2
# chickens = test: three-month oral toxicity in chickens; assay type: in vivo; settings: up to 0.1% in the diet, three months
# Text: as §4
structure (smiles),measurement,setting,value
CC=CC=CC1OC(O)(C(CC)C(=O)NCC=CC=C(C)C(OC)C(C)C2OC(C=CC=CC=C(C)C(=O)C3=C(O)CCNC3=O)C(O)C2O)C(O)C(O)C1(C)C (stereo not shown) [dihydromocimycin],liveliness of treated animals,Treponema; 25-100 ppm in feed,much more lively than before the treatment
same,"curing of Treponema dysentery, compared with tylosin",Treponema; 25 ppm dihydromocimycin vs 100 ppm tylosin,better than a dosage of 100 ppm of tylosin
same,time to cure,Treponema; dihydromocimycin 25 ppm in feed (group 2),cured in periods lying between those of groups 1 and 4
same,time to cure,Treponema; dihydromocimycin 50 ppm in feed (group 3),cured in periods lying between those of groups 1 and 4
same,faeces,"Treponema; dihydromocimycin 100 ppm in feed, one day after the start of treatment",normal
same,aversion to feed,Treponema; feed containing dihydromocimycin,not averse to feed containing dihydromocimycin
CC=CC=CC1OC(O)(C(CC)C(=O)NCC=CC=C(C)C(OC)C(C)C2OC(C=CC=CC=C(C)C(=O)c3c(O)cc[nH]c3=O)C(O)C2O)C(O)C(O)C1(C)C (stereo not shown) [mocimycin],growth promoting effect,[1],growth promoting effect
same,MIC,Proteus morganii 2241,100 µg/mL
same,MIC,[2],100 µg/mL
same,MIC,[3],> 100 µg/mL
same,MIC,[4],1 µg/mL
same,undesired pharmacological effect,rats,does not result in any undesired pharmacological effect
same,activity against a number of human-pathogenic microorganisms,[5],almost no activity
same,MIC,[6],100 µg/mL
same,MIC,Proteus mirabilis H 3,50 µg/mL
same,MIC,[7],1 µg/mL
same,MIC,Proteus mirabilis L 93,100 µg/mL
same,MIC,[8],> 100 µg/mL
same,MIC,[9],100 µg/mL
same,MIC,[10],> 100 µg/mL
same,MIC,Aspergilus niger D 184,> 100 µg/mL
same,MIC,[11],0.9 µg/mL
same,MIC,Candida albicans A 7,> 100 µg/mL
same,MIC,[12],50 µg/mL
same,MIC,[13],> 100 µg/mL
same,MIC,Vibrio coli 1846,100 µg/mL
same,MIC,[14],1 µg/mL
same,MIC,[15],50 µg/mL
same,MIC,[16],> 100 µg/mL
same,MIC,Escherichia coli M,> 100 µg/mL
same,undesired pharmacological effect,chickens,does not result in any undesired pharmacological effect
